Laboratory results from patent US5405837A, “Method for the treatment of neoplastic disease utilizing tiazofurin and ribavirin” (Indiana University Foundation, priority 1993, dated 1995).

How the values were obtained:
IMP DH = IMP DH activity in ACI/N rats bearing s.c. transplanted hepatoma 3924A after tiazofurin and subsequent ribavirin; type: in vivo, rat
Experimental: In this example, ACI/N rats bearing s.c. transplanted hepatoma 3924A were administered daily i.p. injections of 150 mg/kg tiazofurin (trade name Tiazole, Viratek, Inc.) for two days. The rats were then divided into two groups: one received daily i.p. injections of saline, the other received 100 mg/kg ribavirin (trade name Virazole, Viratek, Inc.) for an additional two days.
Tiazofurin reduced the IMP DH activity to 10% and ribavirin maintained the inhibition of IMP DH activity at 20-30% of the control values. The IMP DH activity in the saline-treated rats returned to the untreated levels. (see FIGS. 1 through 5).

spontaneous leukemia = conditions: in some cases; Cancer Research 36:631-639 (1976); cited from earlier work
rat bone marrow = experiment: Ribavirin alone versus tiazofurin, IMP DH activity and cellularity in rat bone marrow (FIGS. 1 and 2); type: in vivo; conditions: at lower doses
Text: (see FIGS. 1 and 2). […] Bekesi, J. G. et al., Treatment of Spontaneous Leukemia in AKR Mice with Chemotherapy, Immunotherapy, or Interferon, Cancer Research 36:631-639 (1976).
FIG. 1 is a graph of experimental data showing the effect of Tiazofurin and subsequent Ribavirin treatment on IMP DH activity in rat bone marrow.
FIG. 2 is a graph of experimental data showing the effect of Tiazofuran and subsequent Ribavirin treatment on cellularity in rat bone marrow.

Structure (SMILES)	IMP DH activity (IMP DH; 150 mg/kg tiazofurin daily i.p. for two days, ACI/N rats with hepatoma 3924A) [%]	antitumor effect (spontaneous leukemia)	effectiveness when administered alone (rat bone marrow)	IMP DH activity, % of the control values (IMP DH; 100 mg/kg ribavirin daily i.p. for two more days after two days of tiazofurin 150 mg/kg)
NC(=O)c1csc([C@@H]2O[C@H](CO)[C@@H](O)[C@H]2O)n1 [tiazofurin, 2-β-D-ribofuranosylthiazole-4-carboxamide]	10	–	–	–
NC(=O)c1ncn([C@@H]2O[C@H](CO)[C@@H](O)[C@H]2O)n1 [ribavirin, 1-β-D-ribofuranosyl-1,2,4-triazole-3-carboxamide]	–	little or no antitumor effect	less effective than tiazofurin	20-30%
